Measured values reported in PMC4917279 (Journal of Medicinal Chemistry, 2016).
“Also recorded” adds a separate entry of the source.

Experiments:
PDGFRB = molecular target: T1, PDGFRB (Homo sapiens, UniProt P09619); assay: KINOMEscan; assay type: binding; settings: read-out: %Ctrl @ 1000 nM
T1 construct: purchased DiscoveRx KINOMEscan

EPHA2 = molecular target: T2, EPHA2 (Homo sapiens, UniProt P29317); assay: KINOMEscan; assay type: binding; settings: read-out: %Ctrl @ 1000 nM
T2 construct: purchased DiscoveRx KINOMEscan

PIM2 = molecular target: T3, PIM2 (Homo sapiens, UniProt Q9P1W9); assay: KINOMEscan; assay type: binding; settings: read-out: %Ctrl @ 1000 nM
T3 construct: purchased DiscoveRx KINOMEscan

TGFBR2 = molecular target: T4, TGFBR2 (Homo sapiens, UniProt P37173); assay: KINOMEscan; assay type: binding; settings: read-out: %Ctrl @ 1000 nM
T4 construct: purchased DiscoveRx KINOMEscan

MLK2 = molecular target: T5, MLK2 (Homo sapiens, UniProt Q02779); assay: KINOMEscan; assay type: binding; settings: read-out: %Ctrl @ 1000 nM
T5 construct: purchased DiscoveRx KINOMEscan

HIPK4 = molecular target: T6, HIPK4 (Homo sapiens, UniProt Q8NE63); assay: KINOMEscan; assay type: binding; settings: read-out: %Ctrl @ 1000 nM
T6 construct: purchased DiscoveRx KINOMEscan

EGFR(L747-T751del,Sins) = molecular target: T7, EGFR(L747-T751del,Sins) (Homo sapiens, UniProt P00533, DEL747-750/T751S); assay: KINOMEscan; assay type: binding; settings: read-out: %Ctrl @ 1000 nM
T7 construct: purchased DiscoveRx KINOMEscan

MST1R = molecular target: T8, MST1R (Homo sapiens, UniProt Q04912); assay: KINOMEscan; assay type: binding; settings: read-out: %Ctrl @ 1000 nM
T8 construct: purchased DiscoveRx KINOMEscan

TIE2 = molecular target: T9, TIE2 (Homo sapiens, UniProt Q02763); assay: KINOMEscan; assay type: binding; settings: read-out: %Ctrl @ 1000 nM
T9 construct: purchased DiscoveRx KINOMEscan
T9 sequence (Q02763 23-1124): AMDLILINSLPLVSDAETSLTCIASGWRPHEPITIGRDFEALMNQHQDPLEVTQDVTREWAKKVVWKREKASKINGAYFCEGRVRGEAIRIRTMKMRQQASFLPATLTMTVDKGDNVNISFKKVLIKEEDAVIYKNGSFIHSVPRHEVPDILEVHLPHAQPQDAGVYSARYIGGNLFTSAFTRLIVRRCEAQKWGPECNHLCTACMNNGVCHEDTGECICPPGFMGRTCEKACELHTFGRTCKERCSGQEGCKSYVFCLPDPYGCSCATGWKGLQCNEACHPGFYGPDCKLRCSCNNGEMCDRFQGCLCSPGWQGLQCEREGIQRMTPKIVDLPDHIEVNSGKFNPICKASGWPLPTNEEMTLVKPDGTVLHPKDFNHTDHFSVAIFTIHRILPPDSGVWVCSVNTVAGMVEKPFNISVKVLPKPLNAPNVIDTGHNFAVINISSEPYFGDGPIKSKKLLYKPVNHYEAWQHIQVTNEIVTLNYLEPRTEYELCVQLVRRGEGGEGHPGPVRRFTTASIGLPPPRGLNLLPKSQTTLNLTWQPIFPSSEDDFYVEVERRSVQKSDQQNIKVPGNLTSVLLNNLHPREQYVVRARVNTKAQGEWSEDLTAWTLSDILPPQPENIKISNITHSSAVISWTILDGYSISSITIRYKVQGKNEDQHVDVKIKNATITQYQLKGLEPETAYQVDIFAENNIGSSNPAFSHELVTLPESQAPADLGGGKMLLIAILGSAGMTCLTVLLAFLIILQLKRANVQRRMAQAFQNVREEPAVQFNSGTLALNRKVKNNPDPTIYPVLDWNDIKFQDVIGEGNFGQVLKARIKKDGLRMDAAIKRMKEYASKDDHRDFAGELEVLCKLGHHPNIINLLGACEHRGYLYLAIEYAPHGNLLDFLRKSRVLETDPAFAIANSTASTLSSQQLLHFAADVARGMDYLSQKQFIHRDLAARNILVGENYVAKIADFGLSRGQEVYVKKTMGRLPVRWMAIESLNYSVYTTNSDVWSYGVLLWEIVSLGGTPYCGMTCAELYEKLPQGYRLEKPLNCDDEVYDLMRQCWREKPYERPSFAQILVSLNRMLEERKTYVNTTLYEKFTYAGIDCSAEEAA

SGK3 = molecular target: T10, SGK3 (Homo sapiens, UniProt Q96BR1); assay: KINOMEscan; assay type: binding; settings: read-out: %Ctrl @ 1000 nM
T10 construct: purchased DiscoveRx KINOMEscan

ACVR1B = molecular target: T11, ACVR1B (Homo sapiens, UniProt P36896); assay: KINOMEscan; assay type: binding; settings: read-out: %Ctrl @ 1000 nM
T11 construct: purchased DiscoveRx

TEC = molecular target: T12, TEC (Homo sapiens, UniProt P42680); assay: KINOMEscan; assay type: binding; settings: read-out: %Ctrl @ 1000 nM
T12 construct: purchased DiscoveRx KINOMEscan

CDK5 = molecular target: T13, CDK5 (Homo sapiens, UniProt Q00535); assay: KINOMEscan; assay type: binding; settings: read-out: %Ctrl @ 1000 nM
T13 construct: purchased DiscoveRx KINOMEscan

SMYD2 = SMYD2 (Homo sapiens, UniProt Q9NRG4); assay: AHNAK methylation Western blot in MDA-MB231 cells overexpressing SMYD2; assay type: cell-based; set-up: expressed in transfected cells
SMYD2, sequence (Q9NRG4 whole entry): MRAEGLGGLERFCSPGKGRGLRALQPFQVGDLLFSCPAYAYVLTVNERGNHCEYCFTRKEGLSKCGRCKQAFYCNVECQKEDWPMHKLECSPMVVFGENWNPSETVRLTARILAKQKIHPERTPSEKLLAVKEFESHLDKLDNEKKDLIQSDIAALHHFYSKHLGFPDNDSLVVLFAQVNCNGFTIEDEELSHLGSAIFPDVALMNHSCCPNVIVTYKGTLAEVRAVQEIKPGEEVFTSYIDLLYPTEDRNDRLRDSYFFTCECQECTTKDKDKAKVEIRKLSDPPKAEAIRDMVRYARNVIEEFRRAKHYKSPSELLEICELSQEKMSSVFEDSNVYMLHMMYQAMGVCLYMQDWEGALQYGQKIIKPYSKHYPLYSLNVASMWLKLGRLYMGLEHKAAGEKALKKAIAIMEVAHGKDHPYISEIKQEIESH

EGFR = molecular target: T14, EGFR (Homo sapiens, UniProt P00533); assay: KINOMEscan; assay type: binding; settings: read-out: %Ctrl @ 1000 nM
T14 construct: purchased DiscoveRx KINOMEscan

[1] = molecular target: T15, RPS6KA5(Kin.Dom.1-N-terminal) (Homo sapiens, UniProt O75582); assay: KINOMEscan; assay type: binding; settings: read-out: %Ctrl @ 1000 nM
T15 construct: RPS6KA5(Kin.Dom.1-N-terminal); purchased DiscoveRx KINOMEscan

IGF1R = molecular target: T16, IGF1R (Homo sapiens, UniProt P08069); assay: KINOMEscan; assay type: binding; settings: read-out: %Ctrl @ 1000 nM
T16 construct: purchased DiscoveRx KINOMEscan
T16 sequence (P08069 31-1367): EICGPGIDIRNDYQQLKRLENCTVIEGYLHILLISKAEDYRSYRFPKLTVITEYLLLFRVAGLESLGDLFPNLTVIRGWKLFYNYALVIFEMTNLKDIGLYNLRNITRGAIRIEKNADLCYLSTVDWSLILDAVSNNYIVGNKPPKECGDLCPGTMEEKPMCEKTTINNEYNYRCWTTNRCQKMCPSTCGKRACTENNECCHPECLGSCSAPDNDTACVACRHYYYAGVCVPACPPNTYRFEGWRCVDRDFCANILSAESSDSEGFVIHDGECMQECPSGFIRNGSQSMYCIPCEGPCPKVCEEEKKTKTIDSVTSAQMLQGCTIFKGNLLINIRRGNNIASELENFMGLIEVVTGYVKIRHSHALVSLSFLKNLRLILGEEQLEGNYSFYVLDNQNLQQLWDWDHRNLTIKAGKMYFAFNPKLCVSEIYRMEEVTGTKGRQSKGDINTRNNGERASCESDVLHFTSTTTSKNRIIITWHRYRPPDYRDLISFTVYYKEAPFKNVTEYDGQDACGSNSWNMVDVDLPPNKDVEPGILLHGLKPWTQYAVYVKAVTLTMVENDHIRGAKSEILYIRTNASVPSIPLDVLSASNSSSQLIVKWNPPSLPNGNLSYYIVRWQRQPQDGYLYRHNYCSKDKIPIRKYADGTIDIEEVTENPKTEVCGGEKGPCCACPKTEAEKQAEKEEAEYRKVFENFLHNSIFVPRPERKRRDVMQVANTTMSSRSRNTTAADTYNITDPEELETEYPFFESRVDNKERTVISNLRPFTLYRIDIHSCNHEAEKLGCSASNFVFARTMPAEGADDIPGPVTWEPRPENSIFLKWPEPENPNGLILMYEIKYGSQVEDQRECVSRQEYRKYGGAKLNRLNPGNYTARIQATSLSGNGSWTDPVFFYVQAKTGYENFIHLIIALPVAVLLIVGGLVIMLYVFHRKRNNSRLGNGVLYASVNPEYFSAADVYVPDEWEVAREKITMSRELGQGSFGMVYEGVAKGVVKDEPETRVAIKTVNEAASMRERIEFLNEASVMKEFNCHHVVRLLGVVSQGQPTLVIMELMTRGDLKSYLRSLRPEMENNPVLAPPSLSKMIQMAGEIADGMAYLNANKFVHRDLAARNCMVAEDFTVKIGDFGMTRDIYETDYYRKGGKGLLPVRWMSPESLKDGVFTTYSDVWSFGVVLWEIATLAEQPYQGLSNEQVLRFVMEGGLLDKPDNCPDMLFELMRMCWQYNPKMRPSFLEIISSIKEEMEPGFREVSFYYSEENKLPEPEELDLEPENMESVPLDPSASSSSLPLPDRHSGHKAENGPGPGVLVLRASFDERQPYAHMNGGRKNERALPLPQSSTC

AKT3 = molecular target: T17, AKT3 (Homo sapiens, UniProt Q9Y243); assay: KINOMEscan; assay type: binding; settings: read-out: %Ctrl @ 1000 nM
T17 construct: purchased DiscoveRx KINOMEscan

IRAK3 = molecular target: T18, IRAK3 (Homo sapiens, UniProt Q9Y616); assay: KINOMEscan; assay type: binding; settings: read-out: %Ctrl @ 1000 nM
T18 construct: purchased DiscoveRx KINOMEscan

FYN = molecular target: T19, FYN (Homo sapiens, UniProt P06241); assay: KINOMEscan; assay type: binding; settings: read-out: %Ctrl @ 1000 nM
T19 construct: purchased DiscoveRx KINOMEscan

CAMK2D = molecular target: T20, CAMK2D (Homo sapiens, UniProt Q13557); assay: KINOMEscan; assay type: binding; settings: read-out: %Ctrl @ 1000 nM
T20 construct: purchased DiscoveRx KINOMEscan

BMPR2 = molecular target: T21, BMPR2 (Homo sapiens, UniProt Q13873); assay: KINOMEscan; assay type: binding; settings: read-out: %Ctrl @ 1000 nM
T21 construct: purchased DiscoveRx KINOMEscan

OSR1 = molecular target: T22, OSR1 (Homo sapiens, UniProt O95747); assay: KINOMEscan; assay type: binding; settings: read-out: %Ctrl @ 1000 nM
T22 construct: purchased DiscoveRx KINOMEscan

HIPK2 = molecular target: T23, HIPK2 (Homo sapiens, UniProt Q9H2X6); assay: KINOMEscan; assay type: binding; settings: read-out: %Ctrl @ 1000 nM
T23 construct: purchased DiscoveRx KINOMEscan

EGFR(E746-A750del) = molecular target: T24, EGFR(E746-A750del) (Homo sapiens, UniProt P00533, DEL746-750); assay: KINOMEscan; assay type: binding; settings: read-out: %Ctrl @ 1000 nM
T24 construct: purchased DiscoveRx KINOMEscan

NDR1 = molecular target: T25, NDR1 (Homo sapiens, UniProt Q15208); assay: KINOMEscan; assay type: binding; settings: read-out: %Ctrl @ 1000 nM
T25 construct: purchased DiscoveRx KINOMEscan
T25 sequence (Q15208 whole entry): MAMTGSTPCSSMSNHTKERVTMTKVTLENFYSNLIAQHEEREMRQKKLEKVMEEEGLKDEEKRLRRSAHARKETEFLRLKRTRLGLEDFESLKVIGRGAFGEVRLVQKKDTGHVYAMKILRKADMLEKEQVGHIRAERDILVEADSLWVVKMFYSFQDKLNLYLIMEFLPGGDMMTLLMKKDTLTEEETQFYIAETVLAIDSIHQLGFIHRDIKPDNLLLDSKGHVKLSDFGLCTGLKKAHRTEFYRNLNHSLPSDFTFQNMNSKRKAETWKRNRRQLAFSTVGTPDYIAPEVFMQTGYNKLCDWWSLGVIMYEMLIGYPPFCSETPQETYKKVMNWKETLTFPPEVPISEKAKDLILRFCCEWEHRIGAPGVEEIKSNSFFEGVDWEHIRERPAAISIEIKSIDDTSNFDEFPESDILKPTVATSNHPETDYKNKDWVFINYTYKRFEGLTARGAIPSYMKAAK

PRKD1 = molecular target: T26, PRKD1 (Homo sapiens, UniProt Q15139); assay: KINOMEscan; assay type: binding; settings: read-out: %Ctrl @ 1000 nM
T26 construct: purchased DiscoveRx KINOMEscan

PRP4 = molecular target: T27, PRP4 (Homo sapiens, UniProt Q13523); assay: KINOMEscan; assay type: binding; settings: read-out: %Ctrl @ 1000 nM
T27 construct: purchased DiscoveRx KINOMEscan
Procedure: (§1) 1.1. Table S1 KINOMEscan Data. The KINOMEscan was performed at DiscoveRx. For
(§2) a more detailed description of this assay technology, see: Fabian, M. A.; Biggs, W.
(§3) H., III; Treiber, D. K.; Atteridge, C. E.; Azimioara, M. D.; Benedetti, M. G.; Carter,
(§4) T. A.; Ciceri, P.; Edeen, P. T.; Floyd, M.; Ford, J. M.; Galvin, M.; Gerlach, J. L.;
(§5) Grotzfeld, R. M.; Herrgard, S.; Insko, D. E.; Insko, M. A.; Lai, A. G.; Lélias, J..M.;
(§6) Mehta, S. A.; Milanov, Z. V.; Velasco, A. M.; Wodicka, L. M.; Patel, H. K.;
(§7) Zarrinkar, P. P.; Lockhart, D. J. A small molecule–kinase interaction map for clinical
(§8) Target Gene Symbol %Ctrl @ 1000 nM BAY-598
(§9) ABL1(H396P)-nonphosphorylated 92
(§10) ABL1(Q252H)-nonphosphorylated 66
(§11) ABL1(T315I)-nonphosphorylated 77
(§12) ABL1-nonphosphorylated 79

CDC2L5 = molecular target: T28, CDC2L5 (Homo sapiens, UniProt Q14004); assay: KINOMEscan; assay type: binding; settings: read-out: %Ctrl @ 1000 nM
T28 construct: purchased DiscoveRx KINOMEscan
Procedure: as §1, §2, §3, §4, §5, §6, §7, §8, §9, §10, §11, §12

GAK = molecular target: T29, GAK (Homo sapiens, UniProt O14976); assay: KINOMEscan; assay type: binding; settings: read-out: %Ctrl @ 1000 nM
T29 construct: purchased DiscoveRx KINOMEscan

MINK = molecular target: T30, MINK (Homo sapiens, UniProt Q8N4C8); assay: KINOMEscan; assay type: binding; settings: read-out: %Ctrl @ 1000 nM
T30 construct: purchased DiscoveRx KINOMEscan

MEK2 = molecular target: T31, MEK2 (Homo sapiens, UniProt P36507); assay: KINOMEscan; assay type: binding; settings: read-out: %Ctrl @ 1000 nM
T31 construct: purchased DiscoveRx KINOMEscan

WEE1 = molecular target: T32, WEE1 (Homo sapiens, UniProt P30291); assay: KINOMEscan; assay type: binding; settings: read-out: %Ctrl @ 1000 nM
T32 construct: purchased DiscoveRx KINOMEscan
T32 sequence (P30291 whole entry): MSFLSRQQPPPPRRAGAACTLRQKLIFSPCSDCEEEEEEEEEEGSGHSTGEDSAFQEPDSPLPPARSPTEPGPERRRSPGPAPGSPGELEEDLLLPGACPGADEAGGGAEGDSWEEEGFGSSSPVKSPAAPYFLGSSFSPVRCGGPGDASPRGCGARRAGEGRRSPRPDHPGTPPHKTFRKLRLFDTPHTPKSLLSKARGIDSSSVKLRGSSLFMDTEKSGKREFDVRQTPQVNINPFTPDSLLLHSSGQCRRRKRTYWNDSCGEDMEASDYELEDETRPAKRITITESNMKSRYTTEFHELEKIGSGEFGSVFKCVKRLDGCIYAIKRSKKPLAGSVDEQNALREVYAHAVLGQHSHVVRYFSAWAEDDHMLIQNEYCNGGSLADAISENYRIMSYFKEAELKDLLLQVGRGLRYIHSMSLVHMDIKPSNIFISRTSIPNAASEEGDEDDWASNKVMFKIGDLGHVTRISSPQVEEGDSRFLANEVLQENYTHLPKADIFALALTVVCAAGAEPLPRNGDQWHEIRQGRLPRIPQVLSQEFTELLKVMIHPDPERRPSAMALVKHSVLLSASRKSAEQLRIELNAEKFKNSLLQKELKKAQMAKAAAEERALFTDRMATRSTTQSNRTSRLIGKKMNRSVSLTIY

PRKG2 = molecular target: T33, PRKG2 (Homo sapiens, UniProt Q13237); assay: KINOMEscan; assay type: binding; settings: read-out: %Ctrl @ 1000 nM
T33 construct: purchased DiscoveRx KINOMEscan

PIK3C2B = molecular target: T34, PIK3C2B (Homo sapiens, UniProt O00750); assay: KINOMEscan; assay type: binding; settings: read-out: %Ctrl @ 1000 nM
T34 construct: purchased DiscoveRx KINOMEscan

TNK1 = molecular target: T35, TNK1 (Homo sapiens, UniProt Q13470); assay: KINOMEscan; assay type: binding; settings: read-out: %Ctrl @ 1000 nM
T35 construct: purchased DiscoveRx KINOMEscan

[2] = molecular target: T36, RSK3(Kin.Dom.2-C-terminal) (Homo sapiens, UniProt Q15349); assay: KINOMEscan; assay type: binding; settings: read-out: %Ctrl @ 1000 nM
T36 construct: RSK3(Kin.Dom.2-C-terminal); purchased DiscoveRx KINOMEscan

T1 sequence (P09619 33-1106): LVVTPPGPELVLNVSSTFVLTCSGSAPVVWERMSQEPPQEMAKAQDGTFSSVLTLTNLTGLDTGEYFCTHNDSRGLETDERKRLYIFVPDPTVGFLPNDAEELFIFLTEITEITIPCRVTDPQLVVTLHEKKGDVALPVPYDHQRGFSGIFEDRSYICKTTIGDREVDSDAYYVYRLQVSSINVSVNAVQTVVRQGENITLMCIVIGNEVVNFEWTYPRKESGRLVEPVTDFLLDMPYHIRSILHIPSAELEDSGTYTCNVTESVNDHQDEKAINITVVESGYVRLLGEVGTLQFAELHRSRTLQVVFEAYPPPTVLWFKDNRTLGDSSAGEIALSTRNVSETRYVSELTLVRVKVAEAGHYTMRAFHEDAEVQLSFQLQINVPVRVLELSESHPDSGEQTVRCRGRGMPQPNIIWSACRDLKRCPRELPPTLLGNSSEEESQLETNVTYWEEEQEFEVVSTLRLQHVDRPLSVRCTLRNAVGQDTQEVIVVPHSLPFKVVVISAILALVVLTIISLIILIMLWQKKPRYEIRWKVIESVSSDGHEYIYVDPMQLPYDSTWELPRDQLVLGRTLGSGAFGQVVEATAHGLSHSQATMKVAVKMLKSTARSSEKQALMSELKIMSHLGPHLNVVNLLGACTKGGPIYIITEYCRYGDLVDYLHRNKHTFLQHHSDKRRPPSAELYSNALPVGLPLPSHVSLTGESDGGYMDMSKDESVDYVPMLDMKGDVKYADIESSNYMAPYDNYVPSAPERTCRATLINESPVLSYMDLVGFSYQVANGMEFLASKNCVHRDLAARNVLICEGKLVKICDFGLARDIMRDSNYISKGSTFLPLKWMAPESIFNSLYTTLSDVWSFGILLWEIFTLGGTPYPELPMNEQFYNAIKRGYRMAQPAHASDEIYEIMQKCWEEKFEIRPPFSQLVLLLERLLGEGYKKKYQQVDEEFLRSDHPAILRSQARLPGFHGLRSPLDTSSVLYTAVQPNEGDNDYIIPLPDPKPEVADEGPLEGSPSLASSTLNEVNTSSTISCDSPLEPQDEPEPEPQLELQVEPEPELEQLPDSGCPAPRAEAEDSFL

CCN(C(=O)CO)[C@H]1CN(/C(=N\C#N)Nc2cccc(OC(F)F)c2)N=C1c1ccc(Cl)c(Cl)c1 [(S)-4]
remaining binding at 1 µM (PDGFRB): 100%
remaining binding at 1 µM (EPHA2): 84%
remaining binding at 1 µM (PIM2): 90%
remaining binding at 1 µM (TGFBR2): 59%
remaining binding at 1 µM (MLK2): 77%
remaining binding at 1 µM (HIPK4): 100%
remaining binding at 1 µM (EGFR(L747-T751del,Sins)): 70%
remaining binding at 1 µM (MST1R): 81%
remaining binding at 1 µM (TIE2): 100%
remaining binding at 1 µM (SGK3): 98%
remaining binding at 1 µM (ACVR1B): 100%
remaining binding at 1 µM (TEC): 99%
remaining binding at 1 µM (CDK5): 82%
AHNAK methylation (Western blot) (SMYD2): specifically reduced methylation of AHNAK; also recorded: inhibits concentration dependent
remaining binding at 1 µM (EGFR): 99%
remaining binding at 1 µM [1]: 93%
remaining binding at 1 µM (IGF1R): 97%
remaining binding at 1 µM (AKT3): 100%
remaining binding at 1 µM (IRAK3): 93%
remaining binding at 1 µM (FYN): 71%
remaining binding at 1 µM (CAMK2D): 96%
remaining binding at 1 µM (BMPR2): 100%
remaining binding at 1 µM (OSR1): 78%
remaining binding at 1 µM (HIPK2): 100%
remaining binding at 1 µM (EGFR(E746-A750del)): 66%
remaining binding at 1 µM (NDR1): 82%
remaining binding at 1 µM (PRKD1): 86%
remaining binding at 1 µM (PRP4): 90%
remaining binding at 1 µM (CDC2L5): 81%
remaining binding at 1 µM (GAK): 100%
remaining binding at 1 µM (MINK): 100%
remaining binding at 1 µM (MEK2): 90%
remaining binding at 1 µM (WEE1): 100%
remaining binding at 1 µM (PRKG2): 84%
remaining binding at 1 µM (PIK3C2B): 100%
remaining binding at 1 µM (TNK1): 66%
remaining binding at 1 µM [2]: 100%
